Experimental data: PMC6874530, “Structural analysis identifies an escape route from the adverse lipogenic effects of liver X receptor ligands” (Communications Biology, 2019)
Where two headings read alike, the source gives them in different places.

Legend:
[1] = target: T1, LXRα (Homo sapiens, UniProt Q13133); test: Gal4 one hybrid reporter gene (transactivation) assay in U2OS cells, LXRα; type: cell-based; details: for EC50: U2OS cells, Gal4-LXRα LBD, read-out: LXRα transactivation pEC50 (converted); for Emax: U2OS, 40 h, read-out: LXRα transactivation Agonist efficacy, %
T1 construct: expression vectors pSG5-Gal4-LXRα LBD or pSG5-Gal4-LXRβ LBD; expressed in transfected cells; host or cells: U2OS osteosarcoma cells
T1 sequence (Q13133 209-447 limits assumed): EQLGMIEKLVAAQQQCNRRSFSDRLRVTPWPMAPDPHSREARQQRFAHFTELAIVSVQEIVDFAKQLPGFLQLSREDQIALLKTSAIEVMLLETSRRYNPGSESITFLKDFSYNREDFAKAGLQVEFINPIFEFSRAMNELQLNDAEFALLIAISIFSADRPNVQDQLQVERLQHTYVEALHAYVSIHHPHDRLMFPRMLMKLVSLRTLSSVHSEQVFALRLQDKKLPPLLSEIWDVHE
Method: (§1) Transactivation assays were performed in U2OS osteosarcoma cells (ATCC, USA). […] Ligands were added at ten different concentrations 2 h post transfection and the luciferase activity was measured after 40 h.

[2] = target: T2, LXRβ (Homo sapiens, UniProt P55055); test: Gal4 one hybrid reporter gene (transactivation) assay in U2OS cells, LXRβ; type: cell-based; details: for Emax: U2OS, 40 h, read-out: LXRβ transactivation Agonist efficacy, %; for Potency-based LXRβ selectivity over LXRα: Gal4 reporter gene assays
T2 construct: expression vectors pSG5-Gal4-LXRα LBD or pSG5-Gal4-LXRβ LBD; expressed in transfected cells; host or cells: U2OS osteosarcoma cells
T2 sequence (P55055 222-460 limits assumed): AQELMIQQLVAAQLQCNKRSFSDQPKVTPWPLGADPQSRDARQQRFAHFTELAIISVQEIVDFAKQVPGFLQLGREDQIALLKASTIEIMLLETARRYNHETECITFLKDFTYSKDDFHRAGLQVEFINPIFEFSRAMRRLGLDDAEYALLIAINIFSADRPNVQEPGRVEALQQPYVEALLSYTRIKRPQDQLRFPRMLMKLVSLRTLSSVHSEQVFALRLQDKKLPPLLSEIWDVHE
Method: as §1

[3] = target: T3, LXRβ LBD (Homo sapiens, UniProt P55055); test: biochemical
T3 sequence (P55055 215-460 limits assumed): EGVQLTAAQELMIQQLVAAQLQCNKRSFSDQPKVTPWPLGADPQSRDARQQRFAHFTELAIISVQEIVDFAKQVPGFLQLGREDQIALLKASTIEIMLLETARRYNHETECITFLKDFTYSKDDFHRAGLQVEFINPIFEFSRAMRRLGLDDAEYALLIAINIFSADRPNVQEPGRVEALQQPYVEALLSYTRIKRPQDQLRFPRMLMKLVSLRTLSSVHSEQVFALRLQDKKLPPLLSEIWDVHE
Description: The compounds were run in triplicate (binding assay) or in quadruplicate (transactivation assay). Standard deviations are indicated for individual experiments run more than once.

[4] = tested on: Abca1 mRNA in intestine; test: intestinal Abca1 mRNA induction in C57BL/6 mice (Emax model); type: in vivo, mouse; details: for ED50: Mus musculus
Method: All procedures involving animals were conducted in accordance with accepted standards of good animal practice and approved by the respective local animal ethics committees (Gothenburg region Local Ethics Review Committee on Animal experiments and University of Virginia Animal Care and Use Committee). Male C57BL/6JOlaHsd mice were retrieved from Harlan Laboratories (Horst, The Netherlands) around 7 weeks of age. In the studies with BMS-852907, male 8-week C57BL/6J mice (Jackson Laboratories) were used. Mice were given ad libitum access to water and standard rodent chow during the studies.
Solid compounds were solubilized in PEG400/Ethanol/Solutol/Water solution (36.3/9.1/4.6/50%). Compounds were given daily by oral gavage, 5 ml kg^−1, at doses ranging from 0.1 to 100 μmol kg^−1 of body weight for 4 days. Animals were terminated 3 h after the last dose.
At termination, the whole-blood volume was drawn from isoflurane-anesthetized mice via an incision in the carotid artery into EDTA blood tubes (S-Monovette®, EDTA KE/1.3 mL, Sarstedt, Nümbrecht, Germany or BD Microtainers®, Benton, Dickinson and Company, Franklin Lakes, New Jersey, USA). Blood samples were placed on ice and centrifuged within an hour (15 min, 2500 × g, 4 °C or 5 min, 16000 × g, 4 °C). The plasma was then dispensed in separate tubes and kept at −80 °C for later analysis of compound concentration and TG levels. For the analysis of intestinal Abca1 transcript levels, a 3–5-mm long segment of the duodenum was excised and cleared from any gut contents. Tissues were instantly snap frozen in liquid nitrogen and stored at −80 °C.
Snap-frozen intestinal tissues were quickly disrupted in QIAzol® (Qiagen, Hilden, Germany) or PureZOL™ (Bio-Rad Laboratories, Hercules, California, USA) by using a bead tissue homogenizer. Lysates were mixed with chloroform and centrifuged at 6000 × g for 15 min at 4 °C. Total RNA was purified from the upper aqueous phase on the ABI PRISM™ 6100 Nucleic Acid PrepStation (Applied Biosystems, Foster City, USA) or by using the RNeasy kit® (QIAGEN Sciences Inc., Germantown, Maryland, USA) including on-column DNase treatment by using the respective manufacturer’s protocol and reagents. Concentration of total RNA was determined on a NanoDrop™ ND-100 Spectrophotometer (Saveen Werner, Lögstrup, Sweden). The RNA templates were transferred to cDNA by reverse transcription by using the High-Capacity cDNA Reverse Transcription Kit (Applied Biosystems, Foster City, USA) according to the manufacturer’s protocol. Mouse ATP-binding cassette subfamily A member 1 (Abca1) was analyzed by using the forward primer 5′-[…]-3′, reverse primer 5′-[…]-3′, and the dual-labeled probe 5′-6FAM-[…]-TAMRA-3′. Mouse ribosomal protein large P0 (Rplp0, 36b4) was analyzed by using the forward primer 5′-[…]-3′, reverse primer 5′-[…]-3′, and the FAM-labeled probe 5′-[…]-TAMRA-3′. In the study with BMS-852907, RT-qPCR reactions were carried out in separate triplicate wells for Abca1 and Rplp0, respectively, by using 20 ng of cDNA template, 385 nM of the above-mentioned primers, and iQ™ SYBR Green Supermix (Bio-Rad, Hercules, California, USA) on a Bio-Rad MyiQ instrument (Bio-Rad, Hercules, California, USA). In the other studies, 400 nM Abca1 forward and reverse primers, 200 nM Abca1 probe, 200 nM Rplp0 forward and reverse primers, and 100 nM Rplp0 probe were mixed with 15 ng of cDNA template and TaqMan™ Gene Expression Master Mix (Applied Biosystems, Foster City, USA). The RT-qPCR reactions were performed on a 7500 Real-time PCR system (Applied Biosystems, Foster City, USA). Cycle threshold values (Ct) were retrieved from the instrument software. Relative changes in mRNA expression were calculated by using the comparative cycle method (2^−ΔΔCt). […]

[5] = maximal activation compared with a reference full agonist, value (SD, n)
[6] = U2OS cells, Gal4-LXRβ LBD, value (SD, n), read-out: LXRβ transactivation pEC50 (converted)
[7] = Receptor-binding affinity pKi LXRβ, value (SD, n independent experiments)
[8] = binding affinity to the LXRβ LBD
[9] = po, read-out: Abca1 mRNA induction in intestine Attributed class
[10] = oral gavage daily for 4 days, C57BL/6 mice, (% RSE), read-out: Abca1 mRNA induction in intestine ED50

Compound | EC50 ([1]; value (SD, n)) [nM] | Emax [1, 5] [%] | EC50 [2, 6] [nM] | Emax [2, 5] [%] | Ki [3, 7] [nM] | Ki [3, 8] [nM] | class of intestinal Abca1 induction [4] | ED50 [4, 9] [µmol/kg] | ED50 [4, 10] [µmol/kg] | Potency-based LXRβ selectivity over LXRα [2] [fold] | EC50 ([2]; read-out: potency in LXRβ-based assay) [nM] | agonist activity in the Gal4 reporter gene assay, LXRα [1] | agonist activity in the Gal4 reporter gene assay, LXRβ [2] | Potency-based LXRα selectivity over LXRβ ([1]; Gal4 reporter gene assays) [fold] | Emax [2] [%] | EC50 [2] [nM] | Ki [3] [nM] | LXRα transactivation Agonist efficacy, % [1, 5] | LXRβ transactivation Agonist efficacy, % [2, 5]
CN(C)C(=O)c1cccc(CCCCNC2=C(c3ccccc3)S(=O)(=O)N(C(C)(C)C)C2=O)c1 [AZ1] | 110 | 102 | 30.9 | 76 | 2.51 | 2 | high ABCA1 | ≤ 11.3 | < 30 | – | – | – | – | – | – | – | – | – | –
CC(CCCc1cccc(S(N)(=O)=O)n1)NC1=C(c2ccccc2)S(=O)(=O)N(C(C)C)C1=O (stereo not drawn) [AZ2] | 77.6 | 111 | 8.71 | 97.3 | 3.72 | – | – | ≤ 11.3 | 9.64 | 11 | – | – | – | – | – | – | – | – | –
CC(C)N1C(=O)C(NCCCCc2cccc(S(N)(=O)=O)n2)=C(c2ccccc2)S1(=O)=O [AZ3] | 813 | 142 | 75.9 | 94.3 | 17.4 | 4 | – | ≤ 11.3 | 1.49 | 9 | < 100 | – | – | – | – | – | – | – | –
CC(C)(C)N1C(=O)C(NC2CCN(c3ncc(CC(=O)O)cc3Cl)CC2)=C(c2ccccc2)S1(=O)=O [AZ4] | 427 | 103 | 148 | 110 | 33.1 | – | – | ≤ 11.3 | 5.65 | – | – | – | – | – | – | – | – | – | –
CN(C)C(=O)c1cnc(N2CC[C@@H](CNC3=C(c4ccccc4)S(=O)(=O)N(C(C)(C)C)C3=O)C2)c(Cl)c1 [AZ5] | 1070 | 60.5 | 97.7 | 66.5 | 77.6 | – | low ABCA1 inducers | > 11.3 | 17.2 | 11 | – | – | – | – | – | – | – | – | –
CC(C)N1C(=O)C(NC2CCN(c3ncc(CC(=O)O)cc3Cl)CC2)=C(c2ccccc2)S1(=O)=O [AZ6] | 1230 | 87.8 | 617 | 95.3 | 162 | – | high ABCA1 inducers | ≤ 11.3 | 11.3 | – | – | – | – | – | – | – | – | – | –
CC(C)(C)N1C(=O)C(Cc2ccccc2)=C(NC2CCN(c3ncc(CC(=O)O)cc3Cl)CC2)C1=O [AZ7] | 1100 | 85.3 | 537 | 104 | 105 | – | high ABCA1 | ≤ 11.3 | < 30 | – | – | – | – | – | – | – | – | – | –
O=C1C(Cc2ccccc2)=C(NCCCCc2ccccc2)C(=O)N1Cc1ccccc1 [AZ8] | 1740 | 91.5 | 1290 | 102 | 47.9 | – | low ABCA1 inducers | > 11.3 | 341 | – | – | – | – | – | – | – | – | – | –
CC(C)(O)c1cn(-c2ccc(-c3cc(F)c(CO)c(S(C)(=O)=O)c3)cc2F)c(C(C)(C)c2c(Cl)cccc2Cl)n1 [BMS-852927] | – | – | > 20000 | – | 2.63 | 3 | – | ≤ 11.3 | 2.1 | – | – | No signal was observed | No signal was observed | – | – | – | – | – | –
O=C(O)Cc1ccc(CNC(=O)[C@@H]2Cc3ccccc3N2S(=O)(=O)c2ccc(-c3ccccc3C(F)(F)F)cc2)cc1 [F1, reference compound] | 562 | 84 | 3890 | 105 | 36.3 | – | high ABCA1 | ≤ 11.3 | < 30 | – | – | – | – | 7 | – | – | – | – | –
O=C(O)Cc1cccc(OCCCN(Cc2cccc(C(F)(F)F)c2Cl)CC(c2ccccc2)c2ccccc2)c1 [GW3965, reference compound] | 1100 | 93.5 | 347 | – | 24 | – | – | ≤ 11.3 | 0.969 | – | – | – | – | – | 77.1 | – | – | – | –
Fc1ccc(-c2c3cccc(C(F)(F)F)c3nn2Cc2ccc(F)cc2Cl)cc1 [LXR-623, reference compound] | 2570 | 102 | – | – | – | – | low ABCA1 inducers | > 11.3 | 31.5 | – | – | – | – | – | 94.3 | 1860 | 95.5 | – | –
O=S(=O)(c1ccccc1)N(CC(F)(F)F)c1ccc(C(O)(C(F)(F)F)C(F)(F)F)cc1 [T0901317, reference compound] | – | – | – | – | – | – | – | ≤ 11.3 | 4.11 | – | – | – | – | – | – | – | – | 100.8 (7.4, n = 4) % | 95.5 (6.4, n = 2) %
